Results from PMC5509744 (Scientific Reports, 2017).
Read-outs that look alike come from different tables or passages of the source.

What was measured:
PMM/PGM [1] = molecular target: T1, PMM/PGM (Pseudomonas aeruginosa, UniProt P26276, S108C); assay: biochemical
T1 construct: gene algC

PMM/PGM [2] = molecular target: T1, PMM/PGM; conditions: read-out: Apparent dissociation constant; 50 mM MOPS pH 7.4, 1 mM MgCl2, 310 K; unphosphorylated enzyme

T1 sequence (P26276 whole entry S108C): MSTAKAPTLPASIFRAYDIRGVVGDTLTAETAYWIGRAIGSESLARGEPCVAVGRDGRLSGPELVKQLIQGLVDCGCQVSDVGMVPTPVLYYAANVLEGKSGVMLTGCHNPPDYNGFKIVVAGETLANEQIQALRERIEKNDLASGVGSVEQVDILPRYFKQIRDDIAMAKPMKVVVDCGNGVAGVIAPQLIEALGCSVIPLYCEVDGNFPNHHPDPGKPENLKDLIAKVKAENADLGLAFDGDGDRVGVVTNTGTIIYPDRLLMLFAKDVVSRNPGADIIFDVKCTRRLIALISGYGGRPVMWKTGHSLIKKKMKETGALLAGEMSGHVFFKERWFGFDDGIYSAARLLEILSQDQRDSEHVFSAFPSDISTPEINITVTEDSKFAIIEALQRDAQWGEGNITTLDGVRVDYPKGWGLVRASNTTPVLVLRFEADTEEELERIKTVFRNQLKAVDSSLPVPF

| Compound | Kd (PMM/PGM [1]) [µM] | Kd (PMM/PGM [2]) [µM] |
| --- | --- | --- |
| O=P(O)(O)O[C@H]1O[C@H](CO)[C@@H](O)[C@H](O)[C@H]1O [G1P, glucose 1-phosphate] | 198 ± 48 | – |
| O=P(O)(O)OC[C@H]1OC(O)[C@H](O)[C@@H](O)[C@@H]1O (stereo partly shown) [G6P, glucose 6-phosphate] | – | 20 ± 7 |
| O=P(O)(O)OC[C@H]1O[C@H](OP(=O)(O)O)[C@H](O)[C@@H](O)[C@@H]1O [G16P, glucose 1,6-bisphosphate] | 839 ± 221 | – |
| O=P(O)(O)O[C@H]1OC[C@@H](O)[C@H](O)[C@H]1O [X1P, xylose 1-phosphate] | 11 ± 9 | – |
